The source of these data is BindingDB's records for doi:10.1016/S1074-5521(00)00004-1 (Pfizer, 2000).

The target of the assay is T1, Glycogen phosphorylase, liver form (Homo sapiens, UniProt P06737).
T1 sequence (P06737 whole entry): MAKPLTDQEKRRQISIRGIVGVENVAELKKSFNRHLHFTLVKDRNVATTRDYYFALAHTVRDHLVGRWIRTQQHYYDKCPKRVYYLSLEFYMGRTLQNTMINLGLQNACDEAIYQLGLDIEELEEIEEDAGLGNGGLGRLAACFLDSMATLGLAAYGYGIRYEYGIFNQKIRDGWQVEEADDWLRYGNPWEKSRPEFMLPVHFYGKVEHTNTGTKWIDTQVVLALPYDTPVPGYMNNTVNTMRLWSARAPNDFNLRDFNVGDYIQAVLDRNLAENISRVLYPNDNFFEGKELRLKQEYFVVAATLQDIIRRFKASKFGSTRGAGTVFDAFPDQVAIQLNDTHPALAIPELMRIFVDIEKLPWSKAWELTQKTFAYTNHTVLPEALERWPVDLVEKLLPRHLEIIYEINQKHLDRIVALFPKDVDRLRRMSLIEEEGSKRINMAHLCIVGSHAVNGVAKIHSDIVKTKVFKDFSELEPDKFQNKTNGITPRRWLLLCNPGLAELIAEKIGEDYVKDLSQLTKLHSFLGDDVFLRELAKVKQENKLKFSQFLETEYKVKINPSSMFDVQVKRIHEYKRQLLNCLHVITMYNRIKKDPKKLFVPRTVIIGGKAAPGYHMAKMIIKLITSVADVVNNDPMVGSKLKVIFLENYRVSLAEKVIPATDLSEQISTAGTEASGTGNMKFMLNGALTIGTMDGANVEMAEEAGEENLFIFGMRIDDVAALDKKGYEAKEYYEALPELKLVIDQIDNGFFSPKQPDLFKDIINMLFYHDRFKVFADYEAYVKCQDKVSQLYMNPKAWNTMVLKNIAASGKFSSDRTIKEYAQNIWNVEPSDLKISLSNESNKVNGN
The experiment in a line: Inhibition Activity Assay. The note with it: pH 7.2; 22 °C. The method, then:
Human liver glycogen phsphorylase (HLGP) activity was measured in the direction of glycogen synthesis by the release of phosphate from glucose-1-phosphate.

As for `COCCNC(=O)c1cc2cc(Cl)ccc2[nH]1`, the midpoint of inhibition, the IC50, lay at 12.5 µM.

In turn, `Cc1ccc2[nH]c(C(=O)NCCOCCOCCNC(=O)c3cc4cc(Cl)ccc4[nH]3)cc2c1` [CP-526,423] came in with a half-maximal inhibitory concentration (IC50) of 0.006 µM.

In general, IC50 refers to the point on the concentration scale where inhibition reaches its midpoint. Read a low IC50 as higher potency.
